Where “and” joins values, the source holds several entries; their conditions need not be identical. Identical values can stand only once. Marks after values point to notes of the source that are not given here.
How the values were obtained:
[1] = Serum pharmacokinetics and bioavailability of oral 3-AP
[2] = tested on: advanced stage solid cancers; assay: Tumor response to oral 3-AP; format: in vivo, human
[3] = tested on: advanced stage cancers; conditions: cited from earlier work
[4] = Phase I dose escalation of oral 3-AP: adverse events; format: in vivo
[5] = in vivo, po
[6] = Serum pharmacokinetics of intravenous 3-AP; format: in vivo, human
[7] = Oral Route, oral dose 50 mg, individual patients
[8] = Oral Route, oral dose 100 mg, individual patients
[9] = Oral Route, oral dose 150 mg, individual patients
[10] = Oral Route, oral dose 200 mg, individual patients
[11] = of 20 enrolled patients, all dose levels
[12] = 200 mg, represented grade 4 toxicity
[13] = adverse events attributed to treatment, 20 patients
[14] = Intravenous Route, 100 mg 2-hour infusion, individual patients

In the case of `NC(=S)NN=Cc1ncccc1N` [3-AP, 3-aminopyridine-2-carboxaldehyde thiosemicarbazone], the AUC [1, 7] is reported as 5.2 µM·h and 1.9 µM·h and 3.5 µM·h and 1.6 µM·h and 1.4 µM·h and 4.1 µM·h, the Cmax [1, 7] is reported as 1500 nM and 900 nM and 500 nM and 1100 nM and the MRT [1, 7] is reported as 2.6 h and 3.0 h and 3.4 h. For the same compound, the Tmax [1, 7] was 3.0 h and 0.8 h and 1.0 h and 1.3 h, the AUC [1, 8] was 6.5 µM·h and 2.3 µM·h and the Cmax [1, 8] was 2500 nM. The MRT [1, 8] was 3.0 h, the AUC [1, 9] was 8.0 µM·h and 21.7 µM·h and 4.3 µM·h and 8.5 µM·h and the Cmax [1, 9] was 5900 nM and 1600 nM and 10100 nM. For the same compound, the MRT [1, 9] was 3.5 h and 1.7 h and 5.4 h and 3.3 h, the Tmax [1, 9] was 0.8 h and 6.0 h and the AUC [1, 10] was 56.0 µM·h and 19.5 µM·h. The Cmax [1, 10] was 800 nM and 4600 nM, the MRT [1, 10] was 3.9 h and the Tmax [1, 10] was 3.0 h. It also gave a bioavailability ([1]; human, serum, po) of 67 ± 29%, an MRT ([1]; human, serum, po, 50 mg, MRT, oral dose 50 mg, individual patients) of 4.2 h and an MRT ([1]; human, serum, po, 100 mg, MRT, oral dose 100 mg, individual patients) of 2.8 h. It also gave an AUC ([1]; human, serum, po, 150 mg, AUC, Avg., average for patients receiving an oral dose of 150 mg) of 10.6 µM·h, a Cmax ([1]; human, serum, po, 150 mg, Cmax, Avg., average for patients receiving an oral dose of 150 mg) of 5000 nM and an MRT ([1]; human, serum, po, 200 mg, MRT, oral dose 200 mg, individual patients) of 2.5 h. The MRT ([1]; human, serum, po, MRT, Avg., mean across dose levels) was 3.2 h, the Tmax ([1]; human, serum, po, Tmax, Avg., mean across dose levels) was 1.9 h and the “median duration of stable disease response” value ([2]; in vivo) was 2 months. The “Stable disease as the best response” value [2, 11] was 25%, the “Stable disease as the best response, patients” value [2, 11] was 5 and the “Therapy discontinued for disease progression” value ([2]; of 20 patients) was 50%. For the same compound, the “progressive disease confirmed while on study, patients” value ([2]; of 20 patients) was 10, the “Therapy discontinued for disease progression, patients” value ([2]; of 20 patients, after a median of 2 cycles) was 10 and the longest progression-free interval ([2]; one patient with pancreatic adenocarcinoma) was 15 months. For the same compound, the clinical benefit rate ([2]; treated population with advanced solid tumors) was 25%, the “durable 18-month complete pelvic tumor response rate” value ([3]; phase 1, radiation, cisplatin and three-times weekly intravenous 3-AP 25 mg/m^2, advanced stage cervical cancer, 10 of 10 women) was 100% and the “patients with at least stable disease as a best response” value ([3]; phase I, intravenous 3-AP in combination with gemcitabine, after 4 months of treatment) was 42%. For the same compound, the stable disease rate ([3]; phase II, intravenous 3-AP and gemcitabine, relapsed nonsmall cell lung cancer) was 20%, the “(AST/SGOT), Grade 3–4” value [4, 12] was 1 (50) ^* No. of Patients (%) and the “Neutropenia, Grade 3–4” value [4, 12] was 1 (50) ^* No. of Patients (%). For the same compound, the “Thrombocytopenia, Grade 3–4” value [4, 12] was 1 (50) ^* No. of Patients (%), the “(AST/SGOT), Grade 3–4” value ([4]; All Gr 3–4, all dose levels) was 1 (5) No. of Patients (%) and the “Anorexia, Grade 3–4” value ([4]; All Gr 3–4, all dose levels) was 1 (5) No. of Patients (%). The “Fatigue, Grade 3–4” value ([4]; All Gr 3–4, all dose levels) was 1 (5) No. of Patients (%), the “Hemoglobin (anemia), Grade 3–4” value ([4]; All Gr 3–4, all dose levels) was 2 (10) No. of Patients (%) and the “Hypertension, Grade 3–4” value ([4]; All Gr 3–4, all dose levels) was 1 (5) No. of Patients (%). For the same compound, the “Hypoxia, Grade 3–4” value ([4]; All Gr 3–4, all dose levels) was 2 (10) No. of Patients (%), the “Infection, Grade 3–4” value ([4]; All Gr 3–4, all dose levels) was 1 (5) No. of Patients (%) and the “Neutropenia, Grade 3–4” value ([4]; All Gr 3–4, all dose levels) was 4 (20) No. of Patients (%). For the same compound, the “Thrombocytopenia, Grade 3–4” value ([4]; All Gr 3–4, all dose levels) was 1 (5) No. of Patients (%), the “(AST/SGOT), all grades” value [4, 13] was 10% and the “(AST/SGOT), all grades, No. of Patients” value [4, 13] was 2. For the same compound, the “Alkaline phosphatase, all grades” value [4, 13] was 10%, the “Alkaline phosphatase, all grades, No. of Patients” value [4, 13] was 2 and the “Anorexia, all grades” value [4, 13] was 20%. The “Anorexia, all grades, No. of Patients” value [4, 13] was 4, the “Diarrhea, all grades” value [4, 13] was 5% and the “Diarrhea, all grades, No. of Patients” value [4, 13] was 1. The “Fatigue, all grades” value [4, 13] was 25%, the “Fatigue, all grades, No. of Patients” value [4, 13] was 5 and the “Headache, all grades” value [4, 13] was 20%. For the same compound, the “Headache, all grades, No. of Patients” value [4, 13] was 4, the “Hemoglobin (anemia), all grades, No. of Patients” value [4, 13] was 7 and the “Hemorrhage, all grades, No. of Patients” value [4, 13] was 1. For the same compound, the “Hyperglycemia, all grades” value [4, 13] was 15%, the “Hyperglycemia, all grades, No. of Patients” value [4, 13] was 3 and the “Hypertension, all grades” value [4, 13] was 5/5%. The “Hypertension, all grades, No. of Patients” value [4, 13] was 1/1, the “Neutropenia, all grades, No. of Patients” value [4, 13] was 11 and the “Thrombocytopenia, all grades, No. of Patients” value [4, 13] was 6. The “Thrombosis, all grades, No. of Patients” value [4, 13] was 0, the “Vomiting, all grades” value [4, 13] was 15% and the “Vomiting, all grades, No. of Patients” value [4, 13] was 3. The “hematological and infectious adverse events observed, number” value ([4]; among the 20 patients enrolled) was 27, the “Hypokalemia, all grades” value ([4]; human, in vivo) was 5% and the “Hypokalemia, all grades, No. of Patients” value ([4]; human, in vivo) was 1. The “Hypotension, all grades” value ([4]; human, in vivo) was 5/5%, the “Hypotension, all grades, No. of Patients” value ([4]; human, in vivo) was 1/1 and the “Hypoxia, all grades” value ([4]; human, in vivo) was 10%. For the same compound, the “Hypoxia, all grades, No. of Patients” value ([4]; human, in vivo) was 2, the “Infection, all grades” value ([4]; human, in vivo) was 15% and the “Infection, all grades, No. of Patients” value ([4]; human, in vivo) was 3. For the same compound, the “Nausea, all grades” value ([4]; human, in vivo) was 25%, the “Nausea, all grades, No. of Patients” value ([4]; human, in vivo) was 5 and the “Therapy discontinued for adverse events” value ([4]; of 20 patients) was 40%. The “Therapy discontinued for adverse events, patients” value ([4]; of 20 patients, after a median of 1 cycle) was 8, the “DLT Description” value ([4]; oral 50 mg every 12 Hrs.) was “grade 3 hypertension” and the “DLT Description” value ([4]; oral 150 mg every 12 Hrs.) was “grade 4 febrile neutropenia”. For the same compound, the “DLT Description” value ([4]; oral 200 mg every 12 Hrs.) was “grade 3 hypoxia”, the “MTD by the oral route higher than by the intravenous route” value ([4]; oral vs intravenous route) was 33% and the “maximum tolerated dose (MTD) of oral 3-AP” value ([4]; per dose, every 12 hours for 5 doses on days 1–3, 8–10, 15–17 of each 28-day cycle) was 150 mg. For the same compound, the “CL/F, Avg.” value ([5]; human) was 0.017 L/h, the “exposure of orally administered 3-AP versus dose” value [5] was “increased in a dose dependent manner” and the AUC [6, 14] was 8.8 µM·h and 4.8 µM·h and 12.1 µM·h and 14.1 µM·h and 7.0 µM·h and 16.1 µM·h and 25.6 µM·h and 10.2 µM·h and 14.5 µM·h and 8.3 µM·h and 11.3 µM·h and 7.2 µM·h and 5.7 µM·h and 10.0 µM·h. The “MRT (mean residence time)” value [6, 14] was 2.4 h and 2.6 h and 3.0 h and 3.5 h and 2.3 h and 2.7 h and 3.1 h, the Cmax ([6]; Intravenous Route, 100 mg 2-hour infusion, serum, individual patients) was 2800 nM and 5400 nM and 4700 nM and 6700 nM and 1900 nM and 3700 nM and 2700 nM and 3200 nM and 2900 nM and 2100 nM and 2500 nM and the Tmax ([6]; human, serum, iv, 100 mg) was 2 h. The AUC ([6]; human, serum, iv, 100 mg, AUC, Avg., 100 mg 2-hour infusion, mean) was 9.5 µM·h, the Cmax ([6]; human, serum, iv, 100 mg, Cmax, Avg., 100 mg 2-hour infusion, mean) was 3500 ± 1400 nM and the MRT ([6]; human, serum, iv, 100 mg, MRT (mean residence time), 100 mg 2-hour infusion, individual patients) was 2.5 h. For the same compound, the MRT ([6]; human, serum, iv, 100 mg, MRT, Avg., 100 mg 2-hour infusion, mean) was 2.8 h and the Cmax ([6]; read-out: Cmax, Avg., Intravenous Route, 100 mg 2-hour infusion, mean) was 2800 nM.
